Converted amounts (≈) assume the structure as drawn.
What was measured:
blood pressure = experiment: Blood pressure of genetically hypertensive rats, P.O. 50 mg/kg; format: in vivo; conditions: 50 mg./kg. orally, tested as hydrochloride salts, + increase, - decrease in b.p.; for change in vivo at 50 mg/kg: Rattus norvegicus, po
Method: The blood pressure of unanesthetized rats and dogs was measured directly by means of a transducer attached to an intra-arterial cannula and in anesthetized dogs by a mercury manometer attached to a carotid cannula.
The compounds of the instant invention were tested as the hydrochloride salts by the above method in genetically hypertensive rats in doses of 50 mg./kg. orally.

[1] = system: ADP induced platelet aggregation; experiment: In vivo/in vitro ADP induced platelet aggregation after I.P. dosing of rabbits; set-up: species or system rabbit; conditions: Oryctolagus cuniculus, ip, 1 to 2 hours after dosing, dose for 50% inhibition of aggregation
Method: (§1) *In vivo/In vitro testing:
(§2) Before dosing the animals, blood samples are taken. The blood is centrifuged to obtain the blood platelet-rich plasma. Aggregation of this plasma is induced with ADP or collagen. This is the control.
(§3) The animals are then dosed with the compounds to be tested (orally or parenterally). Depending upon the route of administration, 1 to 2 hours are allowed to elapse after dosing. Blood is drawn and the same procedure employed as for the control in untreated animals.
The dose required to produce 50% inhibition of the aggregation is determined by dose response data obtained in this manner.

[2] = system: collagen induced platelet aggregation; experiment: In vitro inhibition of collagen induced platelet aggregation (aggregometer method of Born, modified); format: cell-based; conditions: Oryctolagus cuniculus; rabbit platelet rich plasma, 0.05 ml. collagen suspension
Method: (§4) The aggregometer method of Born (1), as modified by Mustard et al. (2) was used to assess the in vitro activity of the various compounds as to inhibition of adenosine diphosphate (ADP) and collagen induced platelet aggregation. Platelet rich plasma was separated by centrifugation from citrated (3.8 percent) rabbit blood. ADP in final concentration of 0.5 mcg./ml. or 0.05 ml. of a collagen suspension prepared according to the method described by Evans et al. (3) was used to induce aggregation. The various compounds tested were dissolved in dimethylsulfoxide (DMSO) so that 5 mcl. added to the platelet rich plasma would yield the desired test concentration. Vehicle control trials were done and compared with aggregation induced in platelet rich plasma containing various concentrations of the test compounds. Dose response curves were obtained and Effective Concentration (EC50) values calculated.
(§5) 2. mustard, J. F., Hegardt, B. Rowsell, H. C. and MacMillan, R. L., J. Lab. Clin. Med. 64, 548 (1964).
3. Evans, G. Marian M. C., Packham, M. A., Nishizawa, E. E., Mustard, J. F. and Murphy, E. A., J. Exp. Med., 128, 877 (1968).

[3] = system: adenosine diphosphate (ADP) induced platelet aggregation; experiment: In vitro inhibition of ADP induced platelet aggregation (aggregometer method of Born, modified); format: cell-based; conditions: Oryctolagus cuniculus; rabbit platelet rich plasma, ADP 0.5 mcg./ml.
Method: as §4, §5

[4] = system: ADP induced platelet aggregation; experiment: In vivo/in vitro ADP induced platelet aggregation after P.O. dosing of dogs; set-up: species or system dog; conditions: 1 to 2 hours after dosing
Method: as §1, §2, §3

| SMILES | EC50 [2] | EC50 [3] | change in vivo at 50 mg/kg (blood pressure) | ED50 [1] | In Vivo/In Vitro Dogs P.O. 5 mg./kg. ADP % Inhibition [4] | Blood Pressure % Change Rats P.O. 50 mg./kg. (blood pressure) |
| --- | --- | --- | --- | --- | --- | --- |
| O=C1CN2Cc3ccccc3N=C2N1 [Compound 1, 1,2,3,5-tetrahydroimidazo [2,1-b]-quinazolin-2-one] | 2 mg/L (≈ 10.7 µM) | 6 mg/L (≈ 32.1 µM) | -36 ± 6% | > 72 mg/kg | – | – |
| O=C1CN2Cc3c(Cl)cccc3N=C2N1 [Compound 2, 6-chloro-1,2,3,5-tetrahydroimidazo[2,1-b]quinazolin-2-one] | 0.02 mg/L (≈ 0.0902 µM) | 1 mg/L (≈ 4.51 µM) | -37 ± 8% | 2 mg/kg | – | – |
| O=C1CN2Cc3cc(Cl)ccc3N=C2N1 [Compound 3] | 0.2 mg/L (≈ 0.902 µM) | 0.5 mg/L (≈ 2.26 µM) | -4 ± 5% | > 10 mg/kg | – | – |
| O=C1CN2Cc3ccc(Cl)cc3N=C2N1 [Compound 4] | 1.5 mg/L (≈ 6.77 µM) | 6 mg/L (≈ 27.1 µM) | -14% | 18 mg/kg | – | – |
| O=C1CN2Cc3cccc(Cl)c3N=C2N1 [Compound 5] | 0.3 mg/L (≈ 1.35 µM) | 7 mg/L (≈ 31.6 µM) | -10 ± 1% | 6 mg/kg | – | – |
| O=C1CN2Cc3cc(Br)ccc3N=C2N1 [Compound 6, 7-Bromo-1,2,3,5-tetrahydroimidazo[2,1-b]-quinazolin-2-one] | 0.2 mg/L (≈ 0.752 µM) | 0.4 mg/L (≈ 1.5 µM) | -8 ± 3% | 5 mg/kg | – | – |
| O=C1CN2Cc3ccc(F)cc3N=C2N1 [Compound 7] | 2 mg/L (≈ 9.75 µM) | 6 mg/L (≈ 29.2 µM) | -27 ± 3% | > 10 mg/kg | – | – |
| O=C1CN2Cc3cc([N+](=O)[O-])ccc3N=C2N1 [Compound 8, 7-Nitro-1,2,3,5-tetrahydroimidazo-[2,1-b]quinazolin-2-one] | 0.2 mg/L (≈ 0.861 µM) | 2 mg/L (≈ 8.61 µM) | 5 ± 2% | > 10 mg/kg | – | – |
| Nc1ccc2c(c1)CN1CC(=O)NC1=N2 [Compound 9, 7-Amino-1,2,3,5-tetrahydroimidazo-[2,1-b]quinazolin-2-one] | 6 mg/L (≈ 29.7 µM) | 50 mg/L (≈ 247 µM) | -10 ± 14% | – | – | – |
| Cc1cccc2c1CN1CC(=O)NC1=N2 [Compound 10, 6-methyl-1,2,3,5-tetrahydroimidazo-[2,1-b]quinazolin-2-one] | 0.1 mg/L (≈ 0.497 µM) | 0.5 mg/L (≈ 2.48 µM) | -37 ± 8% | 0.6 mg/kg | 76% | – |
| Cc1ccc2c(c1)CN1CC(=O)NC1=N2 [Compound 11] | 0.3 mg/L (≈ 1.49 µM) | 2 mg/L (≈ 9.94 µM) | – | > 10 mg/kg | – | – |
| Cc1cccc2c1N=C1NC(=O)CN1C2 [Compound 12] | 3 mg/L (≈ 14.9 µM) | 4 mg/L (≈ 19.9 µM) | -22 ± 10% | > 10 mg/kg | – | – |
| COc1cccc2c1CN1CC(=O)NC1=N2 [Compound 13, 6-methoxy-1,2,3,5-tetrahydroimidazo-[2,1-b]quinazolin-2-one] | 0.2 mg/L (≈ 0.921 µM) | 0.5 mg/L (≈ 2.3 µM) | -20 ± 14% | 4 mg/kg | 19% | – |
| COc1cccc2c1N=C1NC(=O)CN1C2 [Compound 15] | – | – | -16 ± 3% | – | – | – |
| Cc1cccc2c1N=C1NC(=O)CCN1C2 [Compound 24] | – | – | -19% | – | – | – |
| COc1cccc2c1N=C1NC(=O)CCN1C2 [Compound 27] | – | – | 1% | – | – | – |
| O=C1CN2Cc3c(ccc4ccccc34)N=C2N1 [Compound 39] | – | – | -59% | – | – | – |
| Cc1cccc2c1C(C)N1CC(=O)NC1=N2 (stereo not drawn) [Compound 50, 5,6-dimethyl-1,2,3,5-tetrahydroimidazo[2,1-b]quinazolin-2-one] | – | – | -49% | – | – | – |
| Cc1ccc2c(c1)C(C)N1CC(=O)NC1=N2 (stereo not drawn) [Compound 51, 5,7-Dimethyl-1,2,3,5-tetrahydroimidazo-[2,1-b]quinazolin-2-one] | – | – | -34% | – | – | – |

Second part, led by results:

| EC50 [2] | EC50 [3] | SMILES | change in vivo at 50 mg/kg (blood pressure) | ED50 [1] | In Vivo/In Vitro Dogs P.O. 5 mg./kg. ADP % Inhibition [4] | Blood Pressure % Change Rats P.O. 50 mg./kg. (blood pressure) |
| --- | --- | --- | --- | --- | --- | --- |
| 0.2 mg/L (≈ 0.921 µM) | 1 mg/L (≈ 4.6 µM) | COc1ccc2c(c1)CN1CC(=O)NC1=N2 [Compound 14, 7-methoxy-1,2,3,5-tetrahydroimidazo[2,1-b]quinazolin-2-one] | -19 ± 4% | 4 mg/kg | 17% | – |
| – | 0.4 mg/L (≈ 1.62 µM) | COc1ccc2c(c1OC)CN1CC(=O)NC1=N2 [Compound 16, 6,7-dimethoxy-1,2,3,5-tetrahydroimidazo[2,1-b]quinazolin-2-one] | – | 0.7 mg/kg | – | – |
| – | 5 mg/L (≈ 20.2 µM) | COc1cc2c(cc1OC)N=C1NC(=O)CN1C2 [Compound 17] | 26% | 4 mg/kg | 0% | – |
| 0.07 mg/L (≈ 0.303 µM) | 0.7 mg/L (≈ 3.03 µM) | O=C1CN2Cc3cc4c(cc3N=C2N1)OCO4 [Compound 18] | -25 ± 12% | > 50 mg/kg | – | – |
| 4 mg/L (≈ 19.9 µM) | 25 mg/L (≈ 124 µM) | O=C1CCN2Cc3ccccc3N=C2N1 [Compound 19, 6-[H]-1,2,3,4-Tetrahydropyrimido[2,1-b]-quinazolin-2-one] | -32 ± 4% | – | – | – |
| 0.7 mg/L (≈ 2.97 µM) | 6 mg/L (≈ 25.5 µM) | O=C1CCN2Cc3c(Cl)cccc3N=C2N1 [Compound 20] | -12 ± 1% | 8 mg/kg | – | – |
| 1.5 mg/L (≈ 5.35 µM) | 3 mg/L (≈ 10.7 µM) | O=C1CCN2Cc3cc(Br)ccc3N=C2N1 [Compound 21, 8-Bromo-6-[H]-1,2,3,4-tetrahydropyrimido[2,1-b]quinazolin-2-one] | – | 9 mg/kg | – | Toxic |
| 0.3 mg/L (≈ 1.39 µM) | 3 mg/L (≈ 13.9 µM) | Cc1cccc2c1CN1CCC(=O)NC1=N2 [Compound 22] | -26 ± 9% | > 10 mg/kg | – | – |
| 2 mg/L (≈ 9.29 µM) | 16 mg/L (≈ 74.3 µM) | Cc1ccc2c(c1)CN1CCC(=O)NC1=N2 [Compound 23] | -7 ± 2% | – | – | – |
| 0.4 mg/L (≈ 1.73 µM) | 2 mg/L (≈ 8.65 µM) | COc1cccc2c1CN1CCC(=O)NC1=N2 [Compound 25] | -5 ± 3% | 8 mg/kg | – | – |
| 1.5 mg/L (≈ 6.49 µM) | 6 mg/L (≈ 25.9 µM) | COc1ccc2c(c1)CN1CCC(=O)NC1=N2 [Compound 26] | -19 ± 6% | > 10 mg/kg | – | – |
| 32 mg/L (≈ 122 µM) | – | COc1cc2c(cc1OC)N=C1NC(=O)CCN1C2 [Compound 28] | 7% | – | – | – |
| 7 mg/L (≈ 34.8 µM) | 2 mg/L (≈ 9.94 µM) | CC1c2ccccc2N=C2NC(=O)CN21 (stereo not drawn) [Compound 29] | -28% | 35 mg/kg | – | – |
| 0.012 mg/L (≈ 0.0509 µM) | 0.09 mg/L (≈ 0.382 µM) | Cc1c(Cl)ccc2c1CN1CC(=O)NC1=N2 [Compound 45, 7-Chloro-6-methyl-1,2,3,5-tetrahydroimidazo[2,1-b]quinazolin-2-one] | – | – | 46 ±8% | – |

— US3932407A, “Optionally substituted 1,2,3,5-tetrahydroimidezo(2,1-b)-quinazolin-2-ones and 6(H)-1,2,3,4-tetrahydropyimido(2,1-b)quinazolin-2-ones” (Bristol-Myers Company, priority 1974, dated 1976)
